Read-outs that look alike come from different tables or passages of the source.
Legend:
whole blood = assay: Cytokine secretion in human whole blood assay (ELISA); assay type: cell-based
Method: A volume of approximately 55 mL fresh whole blood was drawn in heparinized Vacutainers from three healthy adult anonymous volunteers as described (J. A. Ida, Journal of Immunol Methods, 310, 2006, 86-99). […] Before drawing the blood, the compounds were added to 96 well round bottom plates in a 10× diluted sample at 20 ul. The compounds were diluted in RPMI media without serum but with antibiotics. Antibiotics were added at a 10× concentration. After drawing the blood, the whole blood sample was gently mixed to obtain a homogeneous sample, and 180 ul was added to each well.
After 6 hours and 24 hours incubation, plasma was removed for ELISA (IL-6, IL-10, IL-12p40 and IFN-alpha). ELISA was made at the 6 and 24 hours time point for all concentrations. After 24 hours incubation with selected compound concentrations, cells were analyzed for activation markers by FACS.
All compounds were setup in concentrations at 0-0.01-0.03-0.1-0.5-2.0-10.0 micromolar as the final concentration. Vehicle control was DMSO control, where we used the highest concentration used for the compounds. After addition of blood, all plates were gently agitated at 37° C. and 5% CO2 until harvest. The samples were removed after 6 or 24 hours incubation, and pooled into appropriate tubes (2 ml).
Concentrations of cytokines were determined by ELISA from R&D Systems. The results were analyzed in Graph Pad Prism in order to prepare dose-response
curves, and for determination of EC50 values. FACS analysis was made by using Becton-Dickinson FACSDiva software and subsequently illustrated in Graph Pad Prism.

HLA-DR+/CD20+ B cells = assay: FACS analysis of B cell activation (CD40) in whole blood; assay type: cell-based, human; settings: 24 hours, 2 and 10 uM, three donors
Method: A flow cytometric analysis was performed on whole blood from three donors after treatment with two compound concentrations for 24 h. The FACS analysis for donor 1 and donor 2 was made on another day than donor 3. The compound concentrations were as follows:
B cell activation: 2 and 10 uM
The FACS analysis was used to identify whether the test compounds could induce activation of B cells, and two different subsets of dendritic cells, namely the myeloid CD11c+/CD123− DCs and the plasmacytoid CD11c−/CD123+ DCs. The following markers were studied to identify the activation status of the different subsets:
The FACS staining was performed according to the manufacturer's instructions. Lysis of red blood cells was performed before FACS staining in order to minimize auto-florescence. To include as many B cells and DCs in the study as possible the FACS analyses were performed on 500,000 cells in total for each staining. A P1 gate was set only to include relevant cells on FSC vs. SSC (see FIGS. 12-15). The results of the individual analysis were present as Mean Fluorescence Intensity
The analysis of expression of the activation marker CD40 on B cells was made on double positive HLA-DR (MHC class II) (P4 gate) and CD20 cells (B cell marker) (P8 gate).

[1] = Intravenous pharmacokinetics in the mouse; settings: for Plasma concentration Mean ± S.D.: 1 mg/kg IV
Method: An IV bolus was administered into the caudal vein at a dose of 1 mg/kg in […]. The compound weight was 2.08/10.04 ml. 24 mice were studied. […] […] Animals were sacrificed using ethyl ether at the conclusion of the experiment.
Sample preparation: In a Sirocco filter plate, 100 microliters of plasma were added to 300 microliters of ACN/MeOH spiked with 5 microliters of IS (IV298 10 micrograms per ml) plus 10 microliters of 5% H3PO4. The plate was shaken for 10 minutes at 80 rpm and then filtered under vacuum for 5 minutes.
Analytical method: LC/MS/MS: Premiere XE, Eluent: water (A) MeOH(B) plus 0.1% HCOOH gradient. 15% B to 100% B from 0.1 to 0.5, then isocratic 100% B up to 1.5 minutes, flow 0.8 ml/min; Column Acquity UPLC BEH C18 1.7 microm 2.1×50 mm, injection volume of 5 microliters in a T column at 50° C. ESI positive, MRM, Extractor 5V; Capillary 3.5 kV; T source 115° C.; T desolv. 450° C.
Data analysis: Non-compartmental analysis WinNonlin 5.1; linear trapezoidal, uniform weight.

CYP2C19 = CYP2C19 (Homo sapiens (Human), UniProt P33261); assay: Fluorescent High Throughput P450 assay, CYP2C19; assay type: biochemical; settings: substrate CEC; read-out: CYP2C19 IC50 (Mean ± S.D.)
Sequence of CYP2C19 (P33261 whole entry, looked up): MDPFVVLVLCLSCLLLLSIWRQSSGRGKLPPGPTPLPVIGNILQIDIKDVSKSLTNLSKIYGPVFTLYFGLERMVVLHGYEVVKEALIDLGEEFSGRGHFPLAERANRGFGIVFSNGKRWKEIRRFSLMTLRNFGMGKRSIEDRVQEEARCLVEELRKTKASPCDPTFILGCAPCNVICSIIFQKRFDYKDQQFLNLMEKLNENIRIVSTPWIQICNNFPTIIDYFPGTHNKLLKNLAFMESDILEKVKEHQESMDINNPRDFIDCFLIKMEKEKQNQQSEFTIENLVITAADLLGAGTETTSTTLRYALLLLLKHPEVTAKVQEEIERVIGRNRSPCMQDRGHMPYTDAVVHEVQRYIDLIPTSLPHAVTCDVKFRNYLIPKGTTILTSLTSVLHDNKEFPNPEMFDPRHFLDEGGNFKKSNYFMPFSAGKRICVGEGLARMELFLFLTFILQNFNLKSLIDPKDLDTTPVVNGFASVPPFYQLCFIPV
Method: (§1) Inhibition of the P450 isoforms was measured in specific assays using specific substrates that become fluorescent upon CYP metabolism. Compounds, dissolved in ACN (acetonitrile) (CYP2E1, CYP2C8, CYP2B6, CYP3A5) or DMSO (all remaining isoforms), were tested in duplicate (n=2) in concentration-response curves (eight concentrations) in a 96-well plate containing incubation/NADPH regenerating buffer. Specific isoenzymes and substrates were added and incubated at 37° C. Reactions were terminated at different times, depending on the assays, and plates read on a Fluoroskan Ascent at the appropriate emission/excitation wavelengths. Concentration-response curves performed in duplicate for known inhibitors for each isoenzyme were tested in every assay as positive control.

CYP2C8 = CYP2C8 (Homo sapiens (Human), UniProt P10632); assay: Fluorescent High Throughput P450 assay, CYP2C8; assay type: biochemical; settings: substrate DBF; head of Table 31 prints CYP2CB; read-out: CYP2C8 IC50 (Mean ± S.D.)
Sequence of CYP2C8 (P10632 whole entry, looked up): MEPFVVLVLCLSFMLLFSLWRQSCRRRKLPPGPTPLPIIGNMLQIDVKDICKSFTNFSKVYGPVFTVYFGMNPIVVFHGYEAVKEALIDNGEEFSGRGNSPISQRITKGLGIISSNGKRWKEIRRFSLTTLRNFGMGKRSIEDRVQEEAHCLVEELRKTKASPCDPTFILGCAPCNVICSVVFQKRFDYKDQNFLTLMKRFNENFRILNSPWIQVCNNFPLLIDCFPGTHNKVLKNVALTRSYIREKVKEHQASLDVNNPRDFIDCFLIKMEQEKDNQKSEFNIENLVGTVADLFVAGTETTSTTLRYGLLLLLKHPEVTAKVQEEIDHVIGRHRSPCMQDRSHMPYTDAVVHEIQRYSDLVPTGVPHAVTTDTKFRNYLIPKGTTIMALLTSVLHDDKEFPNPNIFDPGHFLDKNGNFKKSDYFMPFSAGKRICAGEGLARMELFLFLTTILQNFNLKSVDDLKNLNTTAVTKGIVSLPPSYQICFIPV
Method: as §1

CYP2B6 = CYP2B6 (Homo sapiens (Human), UniProt P20813); assay: Fluorescent High Throughput P450 assay, CYP2B6; assay type: biochemical; settings: substrate EFC; read-out: CYP2B6 IC50 (Mean ± S.D.)
Sequence of CYP2B6 (P20813 whole entry, looked up): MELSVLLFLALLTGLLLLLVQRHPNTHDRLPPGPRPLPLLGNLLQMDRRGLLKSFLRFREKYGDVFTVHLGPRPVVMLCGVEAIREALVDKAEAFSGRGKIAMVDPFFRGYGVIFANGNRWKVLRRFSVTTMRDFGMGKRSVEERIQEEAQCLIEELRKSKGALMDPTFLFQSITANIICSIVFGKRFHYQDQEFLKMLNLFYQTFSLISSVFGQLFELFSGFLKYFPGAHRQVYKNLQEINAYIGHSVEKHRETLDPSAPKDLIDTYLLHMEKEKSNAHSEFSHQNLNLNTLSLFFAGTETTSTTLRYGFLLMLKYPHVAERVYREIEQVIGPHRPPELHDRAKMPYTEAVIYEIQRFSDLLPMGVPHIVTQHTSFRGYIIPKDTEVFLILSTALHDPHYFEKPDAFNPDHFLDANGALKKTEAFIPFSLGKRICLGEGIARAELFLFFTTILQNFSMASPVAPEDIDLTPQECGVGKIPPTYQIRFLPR
Method: as §1

Compound: CCCCCCCCCCCC(=O)OCC(COP(=O)(O)OCCNC(=O)c1ccc(Cn2c(=O)[nH]c3c(N)nc(OCCOC)nc32)cc1)OC(=O)CCCCCCCCCCC (centres unmarked) [SC12]
- IL-10 production (whole blood; 6 hours incubation): no IL-10 production was seen
- EC50 (whole blood; Donor 1, read-out: EC50-IFN-alpha, 24 h Incubation): 0.2 µM
- EC50 (whole blood; Donor 1, read-out: EC50-IL-6, 24 h Incubation): 0.22 µM
- EC50 (whole blood; Donor 1, read-out: EC50-IL-10, 24 h Incubation): 1.34 µM
- EC50 (whole blood; Donor 1, read-out: EC50-IL-12p40, 24 h Incubation): 4.1 µM
- EC50 (whole blood; Donor 2, read-out: EC50-IFN-alpha, 24 h Incubation): 0.11 µM
- EC50 (whole blood; Donor 2, read-out: EC50-IL-6, 24 h Incubation): 0.06 µM
- EC50 (whole blood; Donor 2, read-out: EC50-IL-10, 24 h Incubation): 0.41 µM
- EC50 (whole blood; Donor 2, read-out: EC50-IL-12p40, 24 h Incubation): 1.42 µM
- EC50 (whole blood; Donor 3, read-out: EC50-IFN-alpha, 24 h Incubation): 0.24 µM
- EC50 (whole blood; Donor 3, read-out: EC50-IL-6, 24 h Incubation): 0.17 µM
- EC50 (whole blood; Donor 3, read-out: EC50-IL-10, 24 h Incubation): 9 µM
- EC50 (whole blood; Donor 3, read-out: EC50-IL-12p40, 24 h Incubation): 14.2 µM
- EC50 (whole blood; read-out: EC50-IFN-alpha, 6 h Incubation, Donor 1): 0.98 µM
- EC50 (whole blood; read-out: EC50-IFN-alpha, 6 h Incubation, Donor 2): 0.83 µM
- EC50 (whole blood; read-out: EC50-IFN-alpha, 6 h Incubation, Donor 3): 1.66 µM
- EC50 (whole blood; read-out: EC50-IL-6, 6 h Incubation, Donor 1): 0.57 µM
- EC50 (whole blood; read-out: EC50-IL-6, 6 h Incubation, Donor 2): 0.18 µM
- EC50 (whole blood; read-out: EC50-IL-6, 6 h Incubation, Donor 3): 0.37 µM
- EC50 (whole blood; read-out: EC50-IL-12, 6 h Incubation (IL-12p40), Donor 2): 2.36 µM
- EC50 (whole blood; read-out: EC50-IL-12, 6 h Incubation (IL-12p40), Donor 3): 3.56 µM
- CD40 expression (MFI) on B cells (HLA-DR+/CD20+ B cells): induced CD40 expression in donor 1 and donor 2 in all tested concentrations
- AUC INF obs ([1]; 1 mg/kg IV bolus, plasma): 12878 ng·min/mL
- AUClast ([1]; 1 mg/kg IV bolus, plasma): 11744 ng·min/mL
- C0 ([1]; 1 mg/kg IV bolus, plasma): 2.664 µg/mL
- CI ([1]; 1 mg/kg IV bolus, plasma): 4.66 L/h/kg
- Clast ([1]; 1 mg/kg IV bolus, plasma): 0.006 µg/mL
- Cmax ([1]; 1 mg/kg IV bolus, plasma): 0.541 µg/mL
- MRT ([1]; 1 mg/kg IV bolus, plasma): 32 min
- T ½ ([1]; 1 mg/kg IV bolus, plasma): 130 min
- Tlast ([1]; 1 mg/kg IV bolus, plasma): 120 min
- Tmax ([1]; 1 mg/kg IV bolus, plasma): 5 min
- Vss ([1]; 1 mg/kg IV bolus, plasma): 2.5 L/kg
- Plasma concentration Mean ± S.D. ([1]; 5 min): 0.5407 ± 0.17999 µg/mL
- Plasma concentration Mean ± S.D. ([1]; 15 min): 0.02227 ± 0.00316 µg/mL
- Plasma concentration Mean ± S.D. ([1]; 30 min): 0.01 ± 0.00168 µg/mL
- Plasma concentration Mean ± S.D. ([1]; 60 min): 0.00762 ± 0.00072 µg/mL
- Plasma concentration Mean ± S.D. ([1]; 120 min): 0.00605 ± 0.00078 µg/mL
- Plasma concentration Mean ± S.D. ([1]; 240 min, LLOQ 5 ng/ml): <LLOQ
- Plasma concentration Mean ± S.D. ([1]; 480 min, LLOQ 5 ng/ml): <LLOQ
- Plasma concentration Mean ± S.D. ([1]; 1440 min, LLOQ 5 ng/ml): <LLOQ
- IC50 (CYP2C19): > 100 µM
- IC50 (CYP2C8): > 100 µM
- IC50 (CYP2B6): > 100 µM
